From patent US5126337A, “Thiazetoquinoline-3-carboxylic acid derivative and a pharmaceutical composition comprising the same” (priority 1989, dated 1992)
Converted amounts (≈) assume the structure as drawn.

Experiments:
Male mice of ddY strain = experiment: Convulsion inducing activity in combination with fenbufen; conditions: 30 min after fenbufen 100 mg/kg orally
Description: Male mice of ddY strain, 5 weeks old, were used. Fenbufen suspended in 0.5% carboxymethyl cellulose was administered orally at a dose of 100 mg/kg. After thirty minutes, test compounds suspended in 0.5% carboxymethyl cellulose were injected intraperitoneally (i.p.) at a dose of 100 mg/kg or 300 mg/kg.

[1] = system: Klebsiella pneumoniae PCI-602; experiment: Antibacterial spectrum, MIC by twofold agar dilution method; type: cell-based; conditions: PCI602, 10^6 cfu/ml, standard laboratory strain, Gram -, 18 hrs at 37° C, read-out: MIC
Description: (§1) Minimum inhibitory concentrations (MIC) of test compounds were determined by the twofold agar dilution method (Chemotherapy, 29(1), 76(1981)). Overnight cultures in Mueller-Hinton broth were suspended by buffered saline gelatin. One loopful of the bacterial suspension (10^6 or 10^8 colony-forming units/ml) was incubated onto the plates containing test compounds. The plates were incubated for 18 hrs at 37° C. The MIC was defined by the lowest concentration of the drug that inhibited visible growth of bacteria.

[2] = system: Escherichia coli NIHJ JC-2; experiment: as above; type: cell-based; conditions: NIHJJC2, 10^6 cfu/ml, standard laboratory strain, Gram -, 18 hrs at 37° C
Description: as §1, with “Overnight” for “Minimum inhibitory concentrations (MIC) of test compounds were determined by the twofold agar dilution method (Chemotherapy, 29(1), 76(1981)). Overnight”

[3] = system: Acinetobacter calcoaceticus HNR 904; experiment: as above; type: cell-based; conditions: HNR904, 10^6 cfu/ml, clinically isolated strain, Gram -, 18 hrs at 37° C
Description: as §1, with “Overnight” for “Minimum inhibitory concentrations (MIC) of test compounds were determined by the twofold agar dilution method (Chemotherapy, 29(1), 76(1981)). Overnight”

[4] = system: Staphylococuss aureus FDA 209PJC-1; experiment: as above; type: cell-based; conditions: 10^6 cfu/ml; standard laboratory strain, Gram +; 18 hrs at 37° C
Description: as §1, with “Overnight” for “Minimum inhibitory concentrations (MIC) of test compounds were determined by the twofold agar dilution method (Chemotherapy, 29(1), 76(1981)). Overnight”

[5] = system: Pseudomonas aeruginosa HNR 1489; experiment: as above; type: cell-based; conditions: HNR1489, 10^6 cfu/ml, clinically isolated strain, Gram -, 18 hrs at 37° C
Description: as §1, with “Overnight” for “Minimum inhibitory concentrations (MIC) of test compounds were determined by the twofold agar dilution method (Chemotherapy, 29(1), 76(1981)). Overnight”

[6] = system: Serratia marcescens IAM 1184; experiment: as above; type: cell-based; conditions: IAM1184, 10^6 cfu/ml, standard laboratory strain, Gram -, 18 hrs at 37° C
Description: as §1, with “Overnight” for “Minimum inhibitory concentrations (MIC) of test compounds were determined by the twofold agar dilution method (Chemotherapy, 29(1), 76(1981)). Overnight”

[7] = system: Enterococcus faecalis HPC 975; experiment: as above; type: cell-based; conditions: HPC975, 10^6 cfu/ml, clinically isolated strain, Gram +, 18 hrs at 37° C
Description: as §1, with “Overnight” for “Minimum inhibitory concentrations (MIC) of test compounds were determined by the twofold agar dilution method (Chemotherapy, 29(1), 76(1981)). Overnight”

[8] = system: Klebsiella pneumoniae HNR 869; experiment: as above; type: cell-based; conditions: HNR869, 10^6 cfu/ml, clinically isolated strain, Gram -, 18 hrs at 37° C
Description: as §1, with “Overnight” for “Minimum inhibitory concentrations (MIC) of test compounds were determined by the twofold agar dilution method (Chemotherapy, 29(1), 76(1981)). Overnight”

[9] = system: Acinetobacter calcoaceticus HNR 916; experiment: as above; type: cell-based; conditions: HNR916, 10^6 cfu/ml, clinically isolated strain, Gram -, 18 hrs at 37° C
Description: as §1, with “Overnight” for “Minimum inhibitory concentrations (MIC) of test compounds were determined by the twofold agar dilution method (Chemotherapy, 29(1), 76(1981)). Overnight”

[10] = system: Enterococcus faecalis HPC 948; experiment: as above; type: cell-based; conditions: HPC948, 10^6 cfu/ml, clinically isolated strain, Gram +, 18 hrs at 37° C
Description: as §1, with “Overnight” for “Minimum inhibitory concentrations (MIC) of test compounds were determined by the twofold agar dilution method (Chemotherapy, 29(1), 76(1981)). Overnight”

[11] = system: Enterobacter cloacae HNR 1946; experiment: as above; type: cell-based; conditions: HNR1946, 10^6 cfu/ml, clinically isolated strain, Gram -, 18 hrs at 37° C
Description: as §1, with “Overnight” for “Minimum inhibitory concentrations (MIC) of test compounds were determined by the twofold agar dilution method (Chemotherapy, 29(1), 76(1981)). Overnight”

[12] = system: Staphylococcuss aureus HPC 527; experiment: as above; type: cell-based; conditions: 10^6 cfu/ml; clinically isolated strain, Gram +; 18 hrs at 37° C
Description: as §1, with “Overnight” for “Minimum inhibitory concentrations (MIC) of test compounds were determined by the twofold agar dilution method (Chemotherapy, 29(1), 76(1981)). Overnight”

[13] = system: Klebsiella pneumoniae HNR 828; experiment: as above; type: cell-based; conditions: HNR828, 10^6 cfu/ml, clinically isolated strain, Gram -, 18 hrs at 37° C
Description: as §1, with “Overnight” for “Minimum inhibitory concentrations (MIC) of test compounds were determined by the twofold agar dilution method (Chemotherapy, 29(1), 76(1981)). Overnight”

[14] = system: Staphylococcuss aureus HPC 292; experiment: as above; type: cell-based; conditions: 10^6 cfu/ml; clinically isolated strain, Gram +; 18 hrs at 37° C; read-out: MIC
Description: as §1, with “Overnight” for “Minimum inhibitory concentrations (MIC) of test compounds were determined by the twofold agar dilution method (Chemotherapy, 29(1), 76(1981)). Overnight”

[15] = system: Pseudomonas aeruginosa HNR 1472; experiment: as above; type: cell-based; conditions: HNR1472, 10^6 cfu/ml, clinically isolated strain, Gram -, 18 hrs at 37° C
Description: as §1, with “Overnight” for “Minimum inhibitory concentrations (MIC) of test compounds were determined by the twofold agar dilution method (Chemotherapy, 29(1), 76(1981)). Overnight”

[16] = system: Enterobacter cloacae HNR 1939; experiment: as above; type: cell-based; conditions: HNR1939, 10^6 cfu/ml, clinically isolated strain, Gram -, 18 hrs at 37° C
Description: as §1, with “Overnight” for “Minimum inhibitory concentrations (MIC) of test compounds were determined by the twofold agar dilution method (Chemotherapy, 29(1), 76(1981)). Overnight”

[17] = system: Staphylococcuss aureus HPC 308; experiment: as above; type: cell-based; conditions: 10^6 cfu/ml; clinically isolated strain, Gram +; 18 hrs at 37° C
Description: as §1, with “Overnight” for “Minimum inhibitory concentrations (MIC) of test compounds were determined by the twofold agar dilution method (Chemotherapy, 29(1), 76(1981)). Overnight”

[18] = system: Pseudomonas aeruginosa IFO 3445; experiment: as above; type: cell-based; conditions: IFO3445, 10^6 cfu/ml, standard laboratory strain, Gram -, 18 hrs at 37° C
Description: as §1, with “Overnight” for “Minimum inhibitory concentrations (MIC) of test compounds were determined by the twofold agar dilution method (Chemotherapy, 29(1), 76(1981)). Overnight”

[19] = system: Serratia marcescens HNR 1792; experiment: as above; type: cell-based; conditions: HNR1792, 10^6 cfu/ml, clinically isolated strain, Gram -, 18 hrs at 37° C
Description: as §1, with “Overnight” for “Minimum inhibitory concentrations (MIC) of test compounds were determined by the twofold agar dilution method (Chemotherapy, 29(1), 76(1981)). Overnight”

[20] = system: Enterobacter cloacae HNR 1941; experiment: as above; type: cell-based; conditions: HNR1941, 10^6 cfu/ml, clinically isolated strain, Gram -, 18 hrs at 37° C
Description: as §1, with “Overnight” for “Minimum inhibitory concentrations (MIC) of test compounds were determined by the twofold agar dilution method (Chemotherapy, 29(1), 76(1981)). Overnight”

[21] = system: Klebsiella pneumoniae HNR 858; experiment: as above; type: cell-based; conditions: HNR858, 10^6 cfu/ml, clinically isolated strain, Gram -, 18 hrs at 37° C
Description: as §1, with “Overnight” for “Minimum inhibitory concentrations (MIC) of test compounds were determined by the twofold agar dilution method (Chemotherapy, 29(1), 76(1981)). Overnight”

[22] = system: Enterococcus faecalis HPC 984; experiment: as above; type: cell-based; conditions: HPC984, 10^6 cfu/ml, clinically isolated strain, Gram +, 18 hrs at 37° C
Description: as §1, with “Overnight” for “Minimum inhibitory concentrations (MIC) of test compounds were determined by the twofold agar dilution method (Chemotherapy, 29(1), 76(1981)). Overnight”

[23] = system: Acinetobacter calcoaceticus HNR 939; experiment: as above; type: cell-based; conditions: HNR939, 10^6 cfu/ml, clinically isolated strain, Gram -, 18 hrs at 37° C
Description: as §1, with “Overnight” for “Minimum inhibitory concentrations (MIC) of test compounds were determined by the twofold agar dilution method (Chemotherapy, 29(1), 76(1981)). Overnight”

[24] = system: Pseudomonas aeruginosa HNR 1537; experiment: as above; type: cell-based; conditions: HNR1537, 10^6 cfu/ml, clinically isolated strain, Gram -, 18 hrs at 37° C
Description: as §1, with “Overnight” for “Minimum inhibitory concentrations (MIC) of test compounds were determined by the twofold agar dilution method (Chemotherapy, 29(1), 76(1981)). Overnight”

[25] = system: Serratia marcescens HNR 1767; experiment: as above; type: cell-based; conditions: HNR1767, 10^6 cfu/ml, clinically isolated strain, Gram -, 18 hrs at 37° C
Description: as §1, with “Overnight” for “Minimum inhibitory concentrations (MIC) of test compounds were determined by the twofold agar dilution method (Chemotherapy, 29(1), 76(1981)). Overnight”

[26] = system: Serratia marcescens HNR 1544; experiment: as above; type: cell-based; conditions: HNR1544, 10^6 cfu/ml, clinically isolated strain, Gram -, 18 hrs at 37° C
Description: as §1, with “Overnight” for “Minimum inhibitory concentrations (MIC) of test compounds were determined by the twofold agar dilution method (Chemotherapy, 29(1), 76(1981)). Overnight”

Enterobacter cloacae 963 = experiment: as above; type: cell-based; conditions: 10^6 cfu/ml, standard laboratory strain, Gram -, 18 hrs at 37° C
Description: as §1, with “Overnight” for “Minimum inhibitory concentrations (MIC) of test compounds were determined by the twofold agar dilution method (Chemotherapy, 29(1), 76(1981)). Overnight”

MIC [1] [µg/mL] | MIC [2] [µg/mL] | MIC [3] [µg/mL] | MIC [4] [µg/mL] | MIC [5] [µg/mL] | MIC [6] [µg/mL] | MIC [7] [µg/mL] | MIC [8] [µg/mL] | MIC [9] [µg/mL] | MIC [10] [µg/mL] | MIC [11] [µg/mL] | MIC [12] [µg/mL] | MIC [13] [µg/mL] | MIC [14] [µg/mL] | MIC [15] [µg/mL] | MIC [16] [µg/mL] | MIC [17] [µg/mL] | MIC [18] [µg/mL] | MIC [19] [µg/mL] | MIC [20] [µg/mL] | SMILES | further results
 |  |  |  |  |  |  |  |  |  |  |  |  |  |  |  |  |  |  |  | CC1Sc2c(C(=O)O)c(=O)c3cc(F)c(N4CCC(N)C4)cc3n21 (centres unmarked) [Reference Drug D, 7-(3-amino-1-pyrrolidinyl)-6-fluoro-1-methyl-4-oxo-1H,4H-[1,3]thiazeto[3,2-a]quinoline-3-carboxylic acid, reference compound] | Number of convulsion induced/Number of animals (Male mice of ddY strain; 100 mg/kg (i.p.)): 0/6; Number of convulsion induced/Number of animals (Male mice of ddY strain; 300 mg/kg (i.p.)): 0/6
0.025 (≈ 0.0607 µM) | 0.1 (≈ 0.243 µM) | 6.25 (≈ 15.2 µM) | 0.2 (≈ 0.486 µM) | 1.56 (≈ 3.79 µM) | 0.39 (≈ 0.947 µM) | 12.5 (≈ 30.3 µM) | 3.13 (≈ 7.6 µM) | 0.1 (≈ 0.243 µM) | 1.56 (≈ 3.79 µM) | 0.78 (≈ 1.89 µM) | 0.2 (≈ 0.486 µM) | 12.5 (≈ 30.3 µM) | 12.5 (≈ 30.3 µM) | 25 (≈ 60.7 µM) | 0.78 (≈ 1.89 µM) | 1.56 (≈ 3.79 µM) | 1.56 (≈ 3.79 µM) | 12.5 (≈ 30.3 µM) | 12.5 (≈ 30.3 µM) | CC1Sc2c(C(=O)O)c(=O)c3cc(F)c(N4CCC(N(C)C)C4)c(Cl)c3n21 (centres unmarked) [Example 39, 8-Chloro-7-(3-dimethylamino-1-pyrrolidinyl)-6-fluoro-1-methyl-4-oxo-1H, 4H-[1,3]thiazeto[3,2-a]quinoline-3-carboxylic acid] | MIC [21]: 0.78 µg/mL (≈ 1.89 µM); MIC [22]: 0.39 µg/mL (≈ 0.947 µM); MIC [23]: 1.56 µg/mL (≈ 3.79 µM); MIC [24]: 50 µg/mL (≈ 121 µM); MIC [25]: 12.5 µg/mL (≈ 30.3 µM); MIC [26]: 0.2 µg/mL (≈ 0.486 µM); MIC (Enterobacter cloacae 963): 0.39 µg/mL (≈ 0.947 µM)
0.05 (≈ 0.121 µM) | 0.1 (≈ 0.243 µM) | 3.13 (≈ 7.6 µM) | 0.1 (≈ 0.243 µM) | 0.78 (≈ 1.89 µM) | 0.2 (≈ 0.486 µM) | 12.5 (≈ 30.3 µM) | 1.56 (≈ 3.79 µM) | 0.1 (≈ 0.243 µM) | 1.56 (≈ 3.79 µM) | 0.39 (≈ 0.947 µM) | 0.1 (≈ 0.243 µM) | 6.25 (≈ 15.2 µM) | 12.5 (≈ 30.3 µM) | 12.5 (≈ 30.3 µM) | 0.39 (≈ 0.947 µM) | 0.78 (≈ 1.89 µM) | 0.78 (≈ 1.89 µM) | 3.13 (≈ 7.6 µM) | 6.25 (≈ 15.2 µM) | CC1Sc2c(C(=O)O)c(=O)c3cc(F)c(N4CC[C@H](N(C)C)C4)c(Cl)c3n21 (stereo partly drawn) [Example 35, 8-Chloro-7-((S)-3-dimethylamino-1-pyrrolidinyl)-6-fluoro-1-methyl-4-oxo-1H,4H-[1,3]thiazeto[3,2-a]quinoline-3-carboxylic acid] | MIC [21]: 0.39 µg/mL (≈ 0.947 µM); MIC [22]: 0.39 µg/mL (≈ 0.947 µM); MIC [23]: 1.56 µg/mL (≈ 3.79 µM); MIC [24]: 25 µg/mL (≈ 60.7 µM); MIC [25]: 12.5 µg/mL (≈ 30.3 µM); MIC [26]: 0.1 µg/mL (≈ 0.243 µM); MIC (Enterobacter cloacae 963): 0.1 µg/mL (≈ 0.243 µM)
